Laboratory results published in ChEMBL document CHEMBL4828709, “Discovery of 2,4-pyrimidinediamine derivatives as potent dual inhibitors of ALK and HDAC” (Eur J Med Chem, 2021).
The source made the active and inactive calls. The calls are words filed in the database; no cut-off is given here.

Experiments:
A549 = assay: cells; format: functional, cell-based; conditions: Homo sapiens, A549, 72 h
Description: Antiproliferative activity against human A549 cells assessed as inhibition of cell proliferation measured after 72 hrs by CCK8 assay

Histone deacetylase 1 [1] = biological target: T1, Histone deacetylase 1 (Homo sapiens, UniProt Q13547); conditions: Sf9, dose 10.0 nM, time 15.0 min
T1 sequence (Q13547 whole entry): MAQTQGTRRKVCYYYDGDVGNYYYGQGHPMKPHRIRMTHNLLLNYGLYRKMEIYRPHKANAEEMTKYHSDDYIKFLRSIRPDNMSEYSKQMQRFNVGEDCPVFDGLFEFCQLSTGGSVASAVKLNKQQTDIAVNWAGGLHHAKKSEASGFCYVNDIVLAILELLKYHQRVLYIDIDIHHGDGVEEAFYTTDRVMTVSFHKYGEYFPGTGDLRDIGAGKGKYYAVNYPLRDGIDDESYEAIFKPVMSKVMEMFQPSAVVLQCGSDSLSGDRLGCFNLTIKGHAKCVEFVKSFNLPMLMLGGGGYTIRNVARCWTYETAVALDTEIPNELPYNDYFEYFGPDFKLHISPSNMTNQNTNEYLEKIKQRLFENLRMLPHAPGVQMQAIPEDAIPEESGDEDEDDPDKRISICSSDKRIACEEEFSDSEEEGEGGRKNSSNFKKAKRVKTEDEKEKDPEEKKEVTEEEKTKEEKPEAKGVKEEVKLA

[2] = biological target: T2, ALK tyrosine kinase receptor (Homo sapiens, UniProt Q9UM73); assay: Inhibition of ALK (unknown origin) at 10 nM preincubated for 10 mins followed by addition of substrate and ATP for 25 mins by caliper EZ reader method; conditions: time 35.0 min
T2 sequence (Q9UM73 19-1620 limits assumed): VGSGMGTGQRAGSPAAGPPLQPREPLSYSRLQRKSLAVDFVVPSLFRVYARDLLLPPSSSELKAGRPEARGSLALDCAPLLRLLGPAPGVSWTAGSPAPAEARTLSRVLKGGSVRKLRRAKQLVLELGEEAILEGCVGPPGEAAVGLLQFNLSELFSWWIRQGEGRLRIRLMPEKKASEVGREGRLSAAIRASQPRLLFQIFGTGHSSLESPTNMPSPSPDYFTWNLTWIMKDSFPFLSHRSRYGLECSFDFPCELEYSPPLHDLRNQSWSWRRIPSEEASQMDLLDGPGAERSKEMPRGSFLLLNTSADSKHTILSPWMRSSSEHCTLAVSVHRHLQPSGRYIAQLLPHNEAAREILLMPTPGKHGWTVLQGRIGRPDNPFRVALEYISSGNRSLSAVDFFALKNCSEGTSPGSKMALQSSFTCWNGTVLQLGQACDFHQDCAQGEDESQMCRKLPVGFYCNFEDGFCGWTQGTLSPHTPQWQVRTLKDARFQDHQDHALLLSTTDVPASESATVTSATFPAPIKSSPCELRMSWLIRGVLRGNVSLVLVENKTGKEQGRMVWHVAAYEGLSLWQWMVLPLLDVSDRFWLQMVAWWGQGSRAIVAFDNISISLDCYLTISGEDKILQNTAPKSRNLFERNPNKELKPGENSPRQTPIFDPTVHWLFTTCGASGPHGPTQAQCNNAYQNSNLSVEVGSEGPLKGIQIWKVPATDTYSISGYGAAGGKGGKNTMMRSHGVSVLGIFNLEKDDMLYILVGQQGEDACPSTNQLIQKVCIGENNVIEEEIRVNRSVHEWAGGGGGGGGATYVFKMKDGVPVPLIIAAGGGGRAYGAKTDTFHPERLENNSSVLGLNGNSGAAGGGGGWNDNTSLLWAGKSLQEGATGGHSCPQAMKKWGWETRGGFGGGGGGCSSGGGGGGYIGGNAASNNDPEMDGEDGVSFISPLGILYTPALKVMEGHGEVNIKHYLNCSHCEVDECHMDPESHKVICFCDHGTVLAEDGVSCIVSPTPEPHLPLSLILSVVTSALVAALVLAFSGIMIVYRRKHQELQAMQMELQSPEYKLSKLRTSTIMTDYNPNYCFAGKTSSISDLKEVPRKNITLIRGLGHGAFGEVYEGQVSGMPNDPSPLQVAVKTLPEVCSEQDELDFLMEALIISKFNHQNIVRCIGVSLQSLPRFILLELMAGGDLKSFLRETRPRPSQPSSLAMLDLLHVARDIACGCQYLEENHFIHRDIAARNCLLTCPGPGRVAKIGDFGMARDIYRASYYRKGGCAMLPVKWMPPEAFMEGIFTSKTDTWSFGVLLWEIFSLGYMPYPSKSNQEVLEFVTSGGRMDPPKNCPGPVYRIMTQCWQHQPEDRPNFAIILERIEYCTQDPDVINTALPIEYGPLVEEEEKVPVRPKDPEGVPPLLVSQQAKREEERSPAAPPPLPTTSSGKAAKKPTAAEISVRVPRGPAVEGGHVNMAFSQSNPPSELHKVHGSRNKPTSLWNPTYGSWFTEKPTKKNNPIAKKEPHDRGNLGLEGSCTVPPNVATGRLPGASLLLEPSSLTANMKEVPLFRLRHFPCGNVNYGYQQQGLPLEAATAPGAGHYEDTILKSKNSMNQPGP

[3] = biological target: T2, ALK tyrosine kinase receptor; assay: Inhibition of ALK (unknown origin) at 100 nM preincubated for 10 mins followed by addition of substrate and ATP for 25 mins by caliper EZ reader method; conditions: time 35.0 min
Histone deacetylase 2 = Histone deacetylase 2 (Homo sapiens, UniProt Q92769)
Chain of Histone deacetylase 2 (Q92769 whole entry): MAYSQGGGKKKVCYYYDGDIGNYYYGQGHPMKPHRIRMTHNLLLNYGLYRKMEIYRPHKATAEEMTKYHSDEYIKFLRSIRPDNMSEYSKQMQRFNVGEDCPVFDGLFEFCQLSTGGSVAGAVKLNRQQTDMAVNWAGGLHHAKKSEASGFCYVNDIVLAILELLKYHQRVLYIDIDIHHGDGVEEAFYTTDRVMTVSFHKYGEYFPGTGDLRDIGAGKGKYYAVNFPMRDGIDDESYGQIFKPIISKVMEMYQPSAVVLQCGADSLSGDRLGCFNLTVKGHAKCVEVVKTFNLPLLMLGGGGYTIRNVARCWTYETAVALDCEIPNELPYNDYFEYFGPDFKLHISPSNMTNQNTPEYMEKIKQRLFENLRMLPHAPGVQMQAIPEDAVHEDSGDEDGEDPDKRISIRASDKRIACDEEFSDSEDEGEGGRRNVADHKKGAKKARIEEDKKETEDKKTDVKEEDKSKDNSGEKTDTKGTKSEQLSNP
Description: Inhibition of HDAC2 (unknown origin)

cells = format: functional, cell-based; conditions: Homo sapiens, SKNBE2, 72 h
Description: Antiproliferative activity against human SKNBE2 cells harboring wild type ALK assessed as inhibition of cell proliferation measured after 72 hrs by CCK8 assay

SH-SY5Y [4] = assay: Inhibition of colony formation in human SH-SY5Y cells at 0.1 to 0.4 uM incubated for 3 days followed by incubation in drug-free medium for 12 days by crystal violet staining based assay; format: functional, cell-based; conditions: dose 0.1-0.4 µM, time 3.0 day
MDA-MB-231 [5] = assay: Antimigratory activity against human MDA-MB-231 cells assessed as wound closure at 0.4 uM measured after 48 hrs by cell scratch assay (reference value: 30.3%); format: functional
MDA-MB-231 [6] = assay: Induction of apoptosis in human MDA-MB-231 cells assessed as increase in blue fluorescence intensity at 1 to 4 uM measured after 24 hrs by Hoechst33258 staining based fluorescence microscopy; format: functional, cell-based; conditions: dose 1-4 µM
MDA-MB-231 [7] = assay: Induction of apoptosis in human MDA-MB-231 cells assessed as necrotic cells at 2 uM measured after 24 hrs by Annexin V-FITC/PI staining based flowcytometry (reference value: 0.94%); format: functional
SH-SY5Y [8] = assay: Induction of apoptosis in human SH-SY5Y cells assessed as viable cells at 1 uM measured after 24 hrs by Annexin V-FITC/PI staining based flowcytometry (reference value: 77.05%); format: functional; conditions: read-out: Activity
SH-SY5Y [9] = assay: Induction of apoptosis in human SH-SY5Y cells assessed as early apoptotic cells at 1 uM measured after 24 hrs by Annexin V-FITC/PI staining based flowcytometry (reference value: 0.82%); format: functional
SH-SY5Y [10] = assay: Induction of apoptosis in human SH-SY5Y cells assessed as necrotic cells at 1 uM measured after 24 hrs by Annexin V-FITC/PI staining based flowcytometry (reference value: 7.81%); format: functional
SH-SY5Y [11] = assay: Induction of apoptosis in human SH-SY5Y cells assessed as early apoptotic cells at 2 uM measured after 24 hrs by Annexin V-FITC/PI staining based flowcytometry (reference value: 0.82%); format: functional
SH-SY5Y [12] = assay: Induction of apoptosis in human SH-SY5Y cells assessed as early apoptotic cells at 4 uM measured after 24 hrs by Annexin V-FITC/PI staining based flowcytometry (reference value: 0.82%); format: functional
SH-SY5Y [13] = assay: Induction of apoptosis in human SH-SY5Y cells assessed as late apoptotic cells at 4 uM measured after 24 hrs by Annexin V-FITC/PI staining based flowcytometry (reference value: 14.32%); format: functional
MDA-MB-231 [14] = assay: Cell cycle arrest in human MDA-MB-231 cells assessed as accumulation of cells at G1 phase at 4 uM measured after 24 hrs by PI staining based flowcytometry method (reference value: 55.32%); format: functional
SH-SY5Y [15] = assay: Cell cycle arrest in human SH-SY5Y cells assessed as accumulation of cells at G1 phase at 1 uM measured after 24 hrs by PI staining based flowcytometry method (reference value: 59.8%); format: functional
SH-SY5Y [16] = assay: Cell cycle arrest in human SH-SY5Y cells assessed as accumulation of cells at G2 phase at 1 uM measured after 24 hrs by PI staining based flowcytometry method (reference value: 13.23%); format: functional
SH-SY5Y [17] = assay: Cell cycle arrest in human SH-SY5Y cells assessed as accumulation of cells at G2 phase at 4 uM measured after 24 hrs by PI staining based flowcytometry method (reference value: 13.23%); format: functional
SH-SY5Y [18] = assay: Cell cycle arrest in human SH-SY5Y cells assessed as accumulation of cells at S phase at 4 uM measured after 24 hrs by PI staining based flowcytometry method (reference value: 27.69%); format: functional
[19] = biological target: T2, ALK tyrosine kinase receptor; assay: Inhibition of ALK in human MDA-MB-231 cells assessed as inhibition of ALK phosphorylation at Tyr1278 residue at 4 uM measured after 24 hrs by Western blot assay; format: cell-based
[20] = biological target: T2, ALK tyrosine kinase receptor; assay: Inhibition of human ALK in human SH-SY5Y cells assessed as inhibition of ERK phosphorylation at Thr202/Tyr204 residue at 4 uM measured after 24 hrs by Western blot assay; format: cell-based
[21] = biological target: Insulin receptor (Homo sapiens) (UniProt P06213); assay: Inhibition of human InsR at 1 uM
Chain of Insulin receptor (Homo sapiens) (P06213 28-758 limits assumed): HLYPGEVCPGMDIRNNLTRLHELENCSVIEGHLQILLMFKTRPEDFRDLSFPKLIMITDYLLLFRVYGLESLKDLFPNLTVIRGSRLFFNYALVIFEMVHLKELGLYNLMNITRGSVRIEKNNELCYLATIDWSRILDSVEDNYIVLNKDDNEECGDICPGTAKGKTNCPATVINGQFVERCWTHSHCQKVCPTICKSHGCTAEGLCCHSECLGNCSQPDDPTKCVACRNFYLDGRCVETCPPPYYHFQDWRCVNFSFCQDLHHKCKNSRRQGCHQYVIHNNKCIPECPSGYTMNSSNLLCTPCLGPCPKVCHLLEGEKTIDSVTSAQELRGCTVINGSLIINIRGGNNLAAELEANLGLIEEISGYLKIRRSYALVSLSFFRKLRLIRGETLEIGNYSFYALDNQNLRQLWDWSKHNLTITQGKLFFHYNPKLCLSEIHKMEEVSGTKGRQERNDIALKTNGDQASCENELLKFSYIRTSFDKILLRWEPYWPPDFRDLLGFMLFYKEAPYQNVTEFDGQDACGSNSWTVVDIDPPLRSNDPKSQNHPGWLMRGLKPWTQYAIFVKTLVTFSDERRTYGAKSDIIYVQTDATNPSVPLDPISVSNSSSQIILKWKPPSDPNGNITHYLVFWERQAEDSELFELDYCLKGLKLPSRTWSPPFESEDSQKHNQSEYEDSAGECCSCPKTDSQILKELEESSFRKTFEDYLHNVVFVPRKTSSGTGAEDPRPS
Chain of Insulin receptor (Homo sapiens) (P06213 763-1382 limits assumed): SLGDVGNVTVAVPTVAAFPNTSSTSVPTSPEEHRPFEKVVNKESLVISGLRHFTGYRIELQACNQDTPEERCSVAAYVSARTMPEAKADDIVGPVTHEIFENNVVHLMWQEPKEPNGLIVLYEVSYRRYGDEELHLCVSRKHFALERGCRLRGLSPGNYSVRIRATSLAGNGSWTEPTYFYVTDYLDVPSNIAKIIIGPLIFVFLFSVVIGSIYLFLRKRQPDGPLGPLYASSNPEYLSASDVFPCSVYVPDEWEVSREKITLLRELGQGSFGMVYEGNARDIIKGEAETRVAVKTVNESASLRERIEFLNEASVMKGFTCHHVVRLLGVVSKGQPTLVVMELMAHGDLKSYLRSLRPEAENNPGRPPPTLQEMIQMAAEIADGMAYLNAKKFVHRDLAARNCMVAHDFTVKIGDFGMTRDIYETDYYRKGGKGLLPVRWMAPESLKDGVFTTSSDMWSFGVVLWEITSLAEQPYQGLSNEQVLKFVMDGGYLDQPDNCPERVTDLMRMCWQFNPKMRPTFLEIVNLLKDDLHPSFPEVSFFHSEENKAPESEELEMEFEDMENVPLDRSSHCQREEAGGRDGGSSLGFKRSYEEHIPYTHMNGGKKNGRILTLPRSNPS

[22] = biological target: Fibroblast growth factor receptor (Homo sapiens) (UniProt P22607+P11362+P22455+P21802); assay: Inhibition of human FGFR at 1 uM; format: protein assay
[23] = system: ALK tyrosine kinase receptor (Homo sapiens), Q9UM73 [G1202R]; assay: Potency index, ratio of repotrectinib IC50 to test compound IC50 for inhibition of ALK G1202R mutant (unknown origin)
SH-SY5Y [24] = assay: Potency index, ratio of crizotinib IC50 to test compound IC50 for human SH-SY5Y cells harboring ALK F1174L mutant assessed as inhibition of cell proliferation measured after 72 hrs by CCK8 assay; format: functional
NCI-H2228 = assay: Potency index, ratio of crizotinib IC50 to test compound IC50 for human NCI-H2228 cells harboring EML4/ALK […] assessed as inhibition of cell proliferation measured after 72 hrs by CCK8 assay; format: functional
MDA-MB-231 [25] = assay: Potency index, ratio of ceritinib IC50 to test compound IC50 for human MDA-MB-231 cells assessed as inhibition of cell proliferation measured after 72 hrs by CCK8 assay; format: functional
MDA-MB-231 [26] = assay: Potency index, ratio of crizotinib IC50 to test compound IC50 for human MDA-MB-231 cells assessed as inhibition of cell proliferation measured after 72 hrs by CCK8 assay; format: functional
[27] = biological target: T2, ALK tyrosine kinase receptor; assay: Inhibition of ALK in human MDA-MB-231 cells assessed as inhibition of ALK phosphorylation at Tyr1278 residue measured after 24 hrs by Western blot assay; format: cell-based; conditions: dose 1-4 µM
[28] = biological target: T2, ALK tyrosine kinase receptor; assay: Inhibition of human ALK in human SH-SY5Y cells assessed as inhibition of ALK phosphorylation at Tyr1278 residue measured after 24 hrs by Western blot assay; format: cell-based; conditions: dose 1-4 µM
[29] = biological target: T2, ALK tyrosine kinase receptor; assay: Inhibition of human ALK in human SH-SY5Y cells assessed as inhibition of ERK phosphorylation at Thr202/Tyr204 residue measured after 24 hrs by Western blot assay; format: cell-based; conditions: dose 1-4 µM
[30] = biological target: T2, ALK tyrosine kinase receptor; assay: Inhibition of human ALK in human SH-SY5Y cells assessed as inhibition of Akt phosphorylation at Ser473 residue measured after 24 hrs by Western blot assay; format: cell-based; conditions: dose 1-4 µM
Histone deacetylase 1 [31] = biological target: T1, Histone deacetylase 1; assay: biochemical
Description: Inhibition of recombinant human C-terminal His/FLAG-tagged HDAC1 (1 to 482 residues) expressed in Sf9 insect cells using Ac-peptide-AMC as substrate preincubated for 15 mins followed by addition of substrate and trypsin measured by flourescence assay

SMILES: CC(C)S(=O)(=O)c1ccccc1Nc1nc(Nc2ccc(NC(=O)CCCCCCC(=O)NO)cc2)ncc1Cl
- IC50 (A549): 460 nM
- inhibition (Histone deacetylase 1 [1]): 54%
- inhibition [2]: 80.8%
- inhibition [3]: 96.6%
- IC50 (Histone deacetylase 2): 9.3 nM
- IC50 (cells): 50 nM
- inhibition (SH-SY5Y [4]): Active
- Activity (MDA-MB-231 [5]): 3.7%
- Activity (MDA-MB-231 [6]): Active
- Activity (MDA-MB-231 [7]): 1.68%
- viability at 1 µM (SH-SY5Y [8]): 87.9%
- Activity (SH-SY5Y [9]): 1.21%
- Activity (SH-SY5Y [10]): 10.08%
- Activity (SH-SY5Y [11]): 4.02%
- Activity (SH-SY5Y [12]): 5.34%
- Activity (SH-SY5Y [13]): 45.5%
- Activity (MDA-MB-231 [14]): 34.64%
- Activity (SH-SY5Y [15]): 32.97%
- Activity (SH-SY5Y [16]): 48.7%
- Activity (SH-SY5Y [17]): 88.07%
- Activity (SH-SY5Y [18]): 7.55%
- inhibition [19]: Active
- inhibition [20]: Active
- inhibition [21]: Active
- inhibition [22]: 95%
- Ratio IC50 [23]: 10
- Ratio IC50 (SH-SY5Y [24]): 3
- Ratio IC50 (NCI-H2228): 3
- Ratio IC50 (MDA-MB-231 [25]): 3
- Ratio IC50 (MDA-MB-231 [26]): 3
- inhibition [27]: Dose-Dependent Effect
- inhibition [28]: Dose-Dependent Effect
- inhibition [29]: Dose-Dependent Effect
- inhibition [30]: Dose-Dependent Effect
- IC50 (Histone deacetylase 1 [31]): 7.9 nM
